For assay [1], the target named is T1, Gastrin/cholecystokinin type B receptor (Rattus norvegicus, UniProt P30553).
T1 sequence (P30553 whole entry): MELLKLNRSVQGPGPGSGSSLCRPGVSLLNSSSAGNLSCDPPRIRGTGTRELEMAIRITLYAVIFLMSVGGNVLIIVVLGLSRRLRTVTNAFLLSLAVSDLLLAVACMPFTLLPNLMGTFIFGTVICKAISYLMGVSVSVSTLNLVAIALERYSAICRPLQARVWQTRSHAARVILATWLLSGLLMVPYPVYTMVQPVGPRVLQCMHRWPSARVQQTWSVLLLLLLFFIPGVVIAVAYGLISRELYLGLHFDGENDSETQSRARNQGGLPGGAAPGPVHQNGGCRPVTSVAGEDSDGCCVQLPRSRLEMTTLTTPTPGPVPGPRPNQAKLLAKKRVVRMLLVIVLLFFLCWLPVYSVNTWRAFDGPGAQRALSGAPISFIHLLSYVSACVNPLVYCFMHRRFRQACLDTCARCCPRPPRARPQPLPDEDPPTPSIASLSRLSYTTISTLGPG
Put plainly: Binding of [3H]propionyl-CCK-8 to Cholecystokinin type B receptor from rat cerebral cortex. Format: tissue-based.

Assay [2] deals with T2, Cholecystokinin receptor type A (Rattus norvegicus, UniProt P30551).
T2 sequence (P30551 whole entry): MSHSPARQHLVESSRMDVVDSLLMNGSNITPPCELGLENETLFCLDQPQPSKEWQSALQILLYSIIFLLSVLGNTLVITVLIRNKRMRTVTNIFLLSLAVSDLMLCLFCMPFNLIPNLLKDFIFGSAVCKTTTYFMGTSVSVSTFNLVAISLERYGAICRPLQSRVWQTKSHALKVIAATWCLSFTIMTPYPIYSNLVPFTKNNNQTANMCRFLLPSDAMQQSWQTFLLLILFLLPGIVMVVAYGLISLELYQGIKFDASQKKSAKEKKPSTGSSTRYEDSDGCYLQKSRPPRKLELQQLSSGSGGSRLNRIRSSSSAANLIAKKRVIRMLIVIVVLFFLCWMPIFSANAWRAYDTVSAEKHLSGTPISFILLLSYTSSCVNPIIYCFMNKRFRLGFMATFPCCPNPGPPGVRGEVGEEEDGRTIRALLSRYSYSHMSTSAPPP
Put plainly: Binding of [3H]propionyl-CCK-8 to Cholecystokinin type A receptor from rat pancreas.

Structures are written as SMILES.

Usually IC50 stands for the concentration that inhibits the measured activity by half. Read a high IC50 as a need for much substance. `COC(=O)[C@@]1(Cc2ccccc2)C[C@@H]2[C@@H](NC(=O)[C@H](Cc3c[nH]c4ccccc34)NC(=O)OC(C)(C)C)CCCN2C1=O`: the values for the IC50 in assay [1] and in assay [2] were over 10000 nM and 2350 nM, respectively.
Turning to `COC(=O)[C@]1(Cc2ccccc2)C[C@H]2[C@H](NC(=O)[C@H](Cc3c[nH]c4ccccc34)NC(=O)OC(C)(C)C)CCCN2C1=O`, the half-inhibitory concentration (IC50) in assay [1] and in assay [2] was over 10000 nM throughout.
Regarding `CC1(C)[C@H]2CC[C@@]1(C)[C@H](OC(=O)N[C@](C)(Cc1c[nH]c3ccccc13)C(=O)NC[C@H](NC(=O)CCC(=O)O)c1ccccc1)C2`, the IC50 in assay [1] was found to be 9 nM; in assay [2], 1120 nM.
Consider `COC(=O)[C@]1(Cc2ccccc2)C[C@@H]2[C@@H](NC(=O)[C@@H](Cc3c[nH]c4ccccc34)NC(=O)OC(C)(C)C)CCCN2C1=O`, for which the IC50 in assay [1] was 3720 nM; in assay [2], over 10000 nM.
In the same order, the values of `COC(=O)[C@@]1(Cc2ccccc2)C[C@H]2[C@H](NC(=O)[C@@H](Cc3c[nH]c4ccccc34)NC(=O)OC(C)(C)C)CCCN2C1=O` are over 10000 nM and over 10000 nM.
In the same order, the values of `CC(C)(C)OC(=O)N[C@@H](Cc1c[nH]c2ccccc12)C(=O)N[C@H]1CCCN2C(=O)[C@](Cc3ccccc3)(C(N)=O)C[C@H]12` are 3530 nM and over 10000 nM.
As to `COC(=O)[C@@]1(Cc2ccccc2)C[C@@H]2[C@@H](NC(=O)[C@@H](Cc3c[nH]c4ccccc34)NC(=O)OC(C)(C)C)CCCN2C1=O`, the IC50 in assay [1] and in assay [2] was over 10000 nM in each case.
For the compound `COC(=O)[C@]1(Cc2ccccc2)C[C@@H]2[C@@H](NC(=O)[C@@H](Cc3c[nH]c4ccccc34)NC(=O)C34CC5CC(CC(C5)C3)C4)CCCN2C1=O`, the IC50 in assay [1] was 220 nM; in assay [2], over 10000 nM.
For `CC(C)(C)OC(=O)N[C@@H](Cc1c[nH]c2ccccc12)C(=O)N[C@H]1CCCN2C(=O)[C@@](Cc3ccccc3)(C(N)=O)C[C@H]12`, in that order: over 10000 nM and 1020 nM.
For `CC(C)(C)OC(=O)N[C@H](Cc1c[nH]c2ccccc12)C(=O)N[C@H]1CCCN2C(=O)[C@](Cc3ccccc3)(C(N)=O)C[C@H]12`, in that order: 820 nM and over 10000 nM.
In the same order, the values of `COC(=O)[C@@]1(Cc2ccccc2)C[C@H]2[C@H](NC(=O)[C@@H](Cc3c[nH]c4ccccc34)NC(=O)C34CC5CC(CC(C5)C3)C4)CCCN2C1=O` are 2190 nM and 980 nM.

These data come from ChEMBL document CHEMBL1129019, “CCK-4 restricted analogues containing a 3-oxoindolizidine skeleton” (Bioorg Med Chem Lett, 1996).
